Assay results published in paper PMC10987480, “Biological and mutational analyses of CXCR4–antagonist interactions and design of new antagonistic analogs” (Bioscience Reports, 2023).
Positions of bridges follow the written chain, without caps; N, C: chain ends. Non-standard residues stand in square brackets, D forms with d. Residues, ends and D or L forms follow the SMILES beside them. Chains are numbered I, II in the order given. No end group written: not given here. 2Nal = N[C@@H](Cc1ccc2ccccc2c1)C(=O)O; Lys(iPr) = CC(C)NCCCC[C@H](N)C(=O)O

What was measured:
CXCR4 [1] = conditions: previous studies by others; read-out: IC50, inhibition of calcium mobilization; cited from earlier work
From the text: To understand the receptor–ligand recognition mechanism involving CXCR4 and its antagonists, here in this study we conducted a series of comparative analyses of the biological activities and CXCR4 binding sites of eleven known CXCR4 antagonists, including the three mentioned above, using cell-based bioassays, CXCR4 site-directed mutagenesis and computer-aided molecular modeling.

CXCR4 F87A = target: T1, CXCR4 F87A (Homo sapiens, UniProt P61073, F87A); test: Competitive binding to CXCR4 mutant F87A (12G5, CHO cells); conditions: TM2, class of reduction vs wild-type CXCR4, 12G5 competition, averages of at least three independent experiments
T1 construct: expressed in transfected cells
T1 sequence (P61073 whole entry F87A): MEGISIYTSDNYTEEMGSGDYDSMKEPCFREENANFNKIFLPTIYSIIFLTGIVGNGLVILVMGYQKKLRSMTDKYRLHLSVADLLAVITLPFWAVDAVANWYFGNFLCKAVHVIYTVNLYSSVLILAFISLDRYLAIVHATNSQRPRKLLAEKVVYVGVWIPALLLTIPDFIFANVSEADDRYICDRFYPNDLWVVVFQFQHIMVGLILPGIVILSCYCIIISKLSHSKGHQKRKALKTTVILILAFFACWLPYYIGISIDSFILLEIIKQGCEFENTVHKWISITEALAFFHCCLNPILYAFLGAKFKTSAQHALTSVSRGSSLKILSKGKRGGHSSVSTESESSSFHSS
Method: (§1) Plasmid pcDNA3-CXCR4 and mutated pcDNA3-CXCR4 were extracted and transfected into CHO cells using Lipofectamine 2000 according to the manufacturer’s guidelines. The selective medium containing G418 at a concentration of 1.2 mg/ml was applied to isolate stably transfected cells. CHO cells expressing wild-type CXCR4 and mutant CXCR4 were obtained using fluorescence-activated cell sorting (FACS).
(§2) All of the CXCR4 mutants were prepared using PCR technology. Briefly, pairs of asymmetrical primers containing the desired amino acid mutations (Supplementary Tables S1 and S2), each complementary to opposite strands of the pcDNA3–CXCR4, were designed for amplification by Q5® High-Fidelity DNA polymerase and the generation of mutated constructs. The methylated pcDNA3–CXCR4 templates were digested by DpnI. The mutated pcDNA3–CXCR4 was transformed into competent E. coli TOP10 for long-term storage and amplification.
(§3) The procedure for the CXCR4 competitive binding experiments was published previously. Briefly, CXCR4 antibody 12G5 (250 ng/ml) was incubated with 5 × 10^5 cells and varying concentrations of unlabeled compounds in a final volume of 100 μl of assay buffer (PBS with 0.5% BSA and 0.05% NaN3) in 96-well plates for 40 min on ice, after being washed with assay buffer once. The cells were incubated with FITC-conjugated second antibody IgG for 30 min on ice, then washed with assay buffer three times. The fluorescence intensity was measured for excitation at 485 nm and emission at 535 nm using multimode plate reader (PerkinElmer). The IC50 values were calculated using graphpad Prism 7. Experiments were performed at least three times.

CXCR4 N119A = target: T2, CXCR4 N119A (Homo sapiens, UniProt P61073, N119A); test: Competitive binding to CXCR4 mutant N119A (12G5, CHO cells); conditions: TM3, class of reduction vs wild-type CXCR4, 12G5 competition, averages of at least three independent experiments
T2 construct: expressed in transfected cells
T2 sequence (P61073 whole entry N119A): as the sequence (P61073 whole entry F87A) above, with A87F, N119A counted along it
Method: as §1, §2, §3

CXCR4 W94A = target: T3, CXCR4 W94A (Homo sapiens, UniProt P61073, W94A); test: Competitive binding to CXCR4 mutant W94A (12G5, CHO cells); conditions: TM2, class of reduction vs wild-type CXCR4, 12G5 competition, averages of at least three independent experiments
T3 construct: expressed in transfected cells
T3 sequence (P61073 whole entry W94A): as the sequence (P61073 whole entry F87A) above, with A87F, W94A counted along it
Method: as §1, §2, §3

CXCR4 [2] = target: T4, CXCR4 (Homo sapiens, UniProt P61073); test: CXCR4-mediated internalization assay, CHO cells expressing CXCR4-EGFP (confocal); type: cell-based; set-up: expressed in transfected cells; conditions: same concentrations as in calcium mobilization assay; 50 nM SDF-1α; compared with their effect on calcium mobilization
T4 sequence (P61073 whole entry): as the sequence (P61073 whole entry F87A) above, with A87F counted along it
Method: Figure 3 The inhibitory effect of the antagonists on CXCR4 internalization CHO cells expressed CXCR4-EGFP conjugates were seeded in 96-well plate with glass bottom. Untreated cells were used as a control. Cells were pre-treated with or without CXCR4 antagonists and internalized with 50 nM SDF-1α (scale bar: 5 μm). The concentrations of the antagonists used were the same as those for the calcium mobilization assay shown above. The data shown were representative of three independent experiments.
CXCR4 and EGFP were amplified using a primer shown in Supplementary Table S1. The pcDNA3 vector was digested by restriction-enzyme EcoR1 and Apa1. CXCR4 was digested by restriction-enzyme EcoR1 and Xba1. EGFP was digested by restriction-enzyme Xba1 and Apa1. CXCR4–EGFP conjugate was constructed by ligation of three DNA fragments using T4 ligase. The vector containing CXCR4 ligated EGFP at the C-terminus was transfected and expressed in CHO cells in 100 μl DMEM medium supplemented with 2% FBS at 1 × 10^5/ml which was seeded in 96-well black plate glass bottom and incubated at 37°C overnight. Following incubation with tested compounds for 10 min, 50 nM of SDF-1α was added to each well and the internalized CXCR4 was observed using a confocal microscopy (Zeiss LSM880).

CXCR4 [3] = target: T4, CXCR4; set-up: expressed in transfected cells; conditions: previously published result; ref 42 (table footnote; text b13 cites 46); read-out: IC50 (nM), inhibition of 12G5 binding to CXCR4; cited from earlier work
From the text: Table 1 Sequences and structures of eleven antagonists | column: IC50 (nM)

c1cc(CN2CCCNCCNCCCNCC2)ccc1CN1CCCNCCNCCCNCC1 [AMD3100]
Competitive receptor binding activity, CXCR4 F87A (CXCR4 F87A): ++ (10–29% reduction compared with wild-type CXCR4)
Competitive receptor binding activity, CXCR4 N119A (CXCR4 N119A): +++

NCCCCN(Cc1nc2ccccc2[nH]1)[C@H]1CCCc2cccnc21 [AMD11070]
IC50 (CXCR4 [1]): 0.009 µM
Competitive receptor binding activity, CXCR4 F87A (CXCR4 F87A): + (30–60% reduction compared with wild-type CXCR4)
Competitive receptor binding activity, CXCR4 N119A (CXCR4 N119A): +++
Competitive receptor binding activity, CXCR4 W94A (CXCR4 W94A): ++ (10–29% reduction compared with wild-type CXCR4)

CC(C)NCCCC[C@H](NC(=O)[C@H]1CCC(=O)N[C@@H](Cc2ccccc2)C(=O)N[C@@H](Cc2ccc(O)cc2)C(=O)N[C@@H](CCCCNC(C)C)C(=O)N[C@H](CCCNC(=N)N)C(=O)N[C@@H](Cc2ccc3ccccc3c2)C(=O)NCC(=O)N1)C(N)=O [LY2510924] (FY[Lys(iPr)][dR][2Nal]G[dE][Lys(iPr)]-NH2; lactam N-7 (inferred))
Effect on blocking CXCR4 endocytosis (in words) (CXCR4 [2]): lessened effect
Competitive receptor binding activity, CXCR4 N119A (CXCR4 N119A): + (30–60% reduction compared with wild-type CXCR4)

I: [dL]G[dA][dS][dW][dH][dR][dP][dD][dK][dC][dC][dL]G[dY][dQ][dK][dR][dP][dL][dP] / II: [dL]G[dA][dS][dW][dH][dR][dP][dD][dK][dC][dC][dL]G[dY][dQ][dK][dR][dP][dL][dP] (disulfide I:11-II:11, I:12-II:12) [DV1 dimer]
Competitive receptor binding activity, CXCR4 F87A (CXCR4 F87A): + (30–60% reduction compared with wild-type CXCR4)
Effect on blocking CXCR4 endocytosis (in words) (CXCR4 [2]): lessened effect
Competitive receptor binding activity, CXCR4 N119A (CXCR4 N119A): + (30–60% reduction compared with wild-type CXCR4)
Competitive receptor binding activity, CXCR4 W94A (CXCR4 W94A): + (30–60% reduction compared with wild-type CXCR4)

LGASWHRPDKCCLGYQKRPLPQVLLSSWYPTSQLCSKPGVIFLTKRGRQVCADKSKDWVKKLMQQLPVTAR [vMIP-II, viral macrophage-inflammatory protein-II, full-length natural chemokine antagonist produced by human herpesvirus-8; recombinant from Peprotech]
Competitive receptor binding activity, CXCR4 F87A (CXCR4 F87A): + (30–60% reduction compared with wild-type CXCR4)
Competitive receptor binding activity, CXCR4 N119A (CXCR4 N119A): ++ (10–29% reduction compared with wild-type CXCR4)
Competitive receptor binding activity, CXCR4 W94A (CXCR4 W94A): + (30–60% reduction compared with wild-type CXCR4)
IC50 (CXCR4 [3]): 10 nM
